According to patent US20040209929A1, “Fused heteroaryl carboxylic acids as PPAR agonists” (Agouron Pharmaceuticals, Inc., priority 2003, published 2004):

Target: T1, PPAR-γ (Homo sapiens, UniProt P37231)
T1 sequence (P37231 1-505): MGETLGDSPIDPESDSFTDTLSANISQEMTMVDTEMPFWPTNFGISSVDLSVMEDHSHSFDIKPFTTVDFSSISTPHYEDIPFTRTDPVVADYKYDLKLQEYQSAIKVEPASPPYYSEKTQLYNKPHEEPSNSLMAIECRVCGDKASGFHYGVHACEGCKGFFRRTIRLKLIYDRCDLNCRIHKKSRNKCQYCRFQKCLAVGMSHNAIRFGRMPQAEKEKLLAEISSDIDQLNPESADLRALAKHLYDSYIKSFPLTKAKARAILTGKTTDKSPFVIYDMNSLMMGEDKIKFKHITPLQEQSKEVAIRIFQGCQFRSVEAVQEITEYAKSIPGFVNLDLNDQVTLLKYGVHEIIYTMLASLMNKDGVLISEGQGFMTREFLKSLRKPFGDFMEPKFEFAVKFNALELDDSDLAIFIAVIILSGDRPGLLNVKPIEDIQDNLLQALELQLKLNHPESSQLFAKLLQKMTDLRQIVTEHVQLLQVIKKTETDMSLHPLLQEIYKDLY
Experiment: Scintillation Proximity Assay (SPA), displacement of 3H labeled darglitazone from PPAR-γ
Assay type: binding
Conditions: PPAR protein on polylysine beads, read-out: PPAR-γKi
Text: Scintillatian Proximity Assay (SPA) Assays
In the SPA assay, 3H labeled darglitazone (for PPAR-γ) or GW^2331 (for PPAR-α) in bound to the PPAR protein captured on SPA polylysine beads and generates radioactive count signal that can be detected by TopCounts (Packard). The PPAR-bound 3H labeled ligand can be displaced by an unlabeled compound. The Ki of the compound can be then determined by the extent of displacement at various compound concentrations.
SPA polylysine beads, which can be purchased from Amersham Bioscience.
3H labeled Darglitazone for PPAR-γ.
Buffer—PBS, 10% glycerol, 14 mM beta-mercaptoethanol.

Row | Ki [µM] | SMILES
1 | 0.58 | Cc1oc(-c2ccccc2)nc1CCOc1cccc2c1cnn2CCC(=O)O [Example 1, 3-{4-[2-(5-methyl-2-phenyl-1,3-oxazol-4-yl)ethoxy]-1H-indazol-1-yl}propanoic acid]
2 | > 100 | Cc1oc(-c2ccccc2)nc1COc1ccc2cnn(CCCC(=O)O)c2c1 [Example 3, 4-{6-[(5-methyl-2-phenyl-1,3-oxazol-4-yl)methoxy]-1H-indazol-1-yl}butanoic acid]
3 | > 50 | Cc1oc(-c2ccccc2)nc1COc1ccc2cnn(CC(=O)O)c2c1 [Example 4, {6-[(5-methyl-2-phenyl-1,3-oxazol-4-yl)methoxy]-1H-indazol-1-yl}acetic acid]
4 | 1.8 | O=C(O)CCn1ncc2ccc(OCc3nc(-c4ccccc4)oc3-c3ccccc3)cc21 [Example 6, 3-{6-[(2,5-diphenyl-1,3-oxazol-4-yl)methoxy]-1H-indazol-1-yl}propanoic acid]
5 | 6.9 | O=C(O)Cn1ncc2ccc(OCc3nc(-c4ccccc4)oc3-c3ccccc3)cc21 [Example 7, {6-[(2,5-diphenyl-1,3-oxazol-4-yl)methoxy]-1H-indazol-1-yl}acetic acid]
6 | > 100 | O=C(O)CCCn1ncc2ccc(OCc3nc(-c4ccccc4)oc3-c3ccccc3)cc21 [Example 10, 4-{6-[(2,5-diphenyl-1,3-oxazol-4-yl)methoxy]-1H-indazol-1-yl}butanoic acid]
7 | > 100 | O=C(O)CCCn1ncc2c(OCc3nc(-c4ccccc4)oc3-c3ccccc3)cccc21 [Example 11, 4-{4-[(2,5-diphenyl-1,3-oxazol-4-yl)methoxy]-1H-indazol-1-yl}butanoic acid]
8 | 4 | O=C(O)Cn1ncc2c(OCc3nc(-c4ccccc4)oc3-c3ccccc3)cccc21 [Example 12, {4-[(2,5-diphenyl-1,3-oxazol-4-yl)methoxy]-1H-indazol-1-yl)acetic acid]
9 | 41 | Cc1oc(-c2ccccc2)nc1COc1ccc2cnn(CCC(=O)O)c2c1 [Example 13, 3-{6-[(5-methyl-2-phenyl-1,3-oxazol-4-yl)methoxy]-1H-indazol-1-yl}propanoic acid]
10 | 3.7 | O=C(O)CCn1ncc2c(OCc3nc(-c4ccccc4)oc3-c3ccccc3)cccc21 [Example 14, 3-{4-[(2,5-diphenyl-1,3-oxazol-4-yl)methoxy]-1H-indazol-1-yl}propanoic acid]
11 | 10 | Cc1oc(-c2ccccc2)nc1COc1cccc2c1cnn2CCCC(=O)O [Example 15, 4-{4-[(5-methyl-2-phenyl-1,3-oxazol-4-yl)methoxy]-1H-indazol-1-yl}butanoic acid]
12 | > 100 | Cc1oc(-c2ccccc2)nc1COc1cccc2c1cnn2CC(=O)O [Example 16, {4-[(5-methyl-2-phenyl-1,3-oxazol-4-yl)methoxy]-1H-indazol-1-yl}acetic acid]
13 | 4 | Cc1oc(-c2ccccc2)nc1COc1cccc2c1cnn2CCC(=O)O [Example 17, 3-{4-[(5-methyl-2-phenyl-1,3-oxazol-4-yl)methoxy]-1H-indazol-1-yl}propanoic acid]
14 | > 50 | Cc1oc(-c2ccccc2)nc1CCOc1cccc2c1cnn2CCCC(=O)O [Example 18]
15 | > 50 | Cc1oc(-c2ccccc2)nc1CCOc1ccc2cnn(CC(=O)O)c2c1 [Example 20, {6-[2-(5-methyl-2-phenyl-1,3-oxazol-4-yl)ethoxy]-1H-indazol-1-yl}acetic acid]
16 | > 50 | Cc1oc(-c2ccccc2)nc1CCOc1ccc2cnn(CCC(=O)O)c2c1 [Example 21, 3-{6-[2-(5-methyl-2-phenyl-1,3-oxazol-4-yl)ethoxy]-1H-indazol-1-yl}propanoic acid]
17 | > 50 | Cc1oc(-c2ccccc2)nc1CCOc1ccc2cnn(CCCC(=O)O)c2c1 [Example 22, 4-{6-[2-(5-methyl-2-phenyl-1,3-oxazol-4-yl)ethoxy]-1H-indazol-1-yl}butanoic acid]

Row | Ki [µM] | SMILES
18 | > 50 | Cc1oc(-c2ccccc2)nc1CCCOc1cccc2c1cnn2CCCC(=O)O [Example 23, 4-{4-[3-(5-methyl-2-phenyl-1,3-oxazol-4-yl)propoxy]-1H-indazol-1-yl}butanoic acid]
19 | > 50 | Cc1oc(-c2ccccc2)nc1CCCOc1cccc2c1cnn2CC(=O)O [Example 25, {4-[3-(5-methyl-2-phenyl-1,3-oxazol-4-yl)propoxy]-1H-indazol-1-yl}acetic acid]
20 | > 50 | Cc1oc(-c2ccccc2)nc1CCCOc1cccc2c1cnn2CCC(=O)O [Example 27, 3-{4-[3-(5-methyl-2-phenyl-1,3-oxazol-4-yl)propoxy]-1H-indazol-1-yl}propanoic acid]
21 | > 50 | Cc1oc(-c2ccccc2)nc1CCOc1ccnc2c1ccn2CC(=O)O [Example 29, {4-[2-(5-methyl-2-phenyl-1,3-oxazol-4-yl)ethoxy]-1H-pyrrolo[2,3-b]pyridin-1-yl}acetic acid]
22 | 7 | Cc1oc(-c2ccccc2)nc1CCCn1ncc2c(OC(C)(C)C(=O)O)cccc21 [Example 33, 2-methyl-2-({1-[3-(5-methyl-2-phenyl-1,3-oxazol-4-yl)propyl]-1H-indazol-4-yl}oxy)propanoic acid]
23 | > 50 | Cc1oc(-c2ccccc2)nc1CCOc1cccc2c1ncn2CCC(=O)O [Example 34, 3-{4-[2-(5-methyl-2-phenyl-1,3-oxazol-4-yl)ethoxy]-1H-benzimidazol-1-yl}propanoic acid]
24 | 19 | Cc1oc(-c2ccccc2)nc1CCOc1cccc2c1c(C(=O)C(F)(F)F)cn2CCC(=O)O [Example 44]
25 | 9 | Cc1oc(-c2ccccc2)nc1CCOc1ccnc2c1ccn2CCC(=O)O [Example 45]
26 | 0.58 | Cc1oc(-c2ccccc2)nc1CCNc1ccnc2c1ccn2CCC(=O)O [Example 46]
27 | > 50 | Cc1oc(-c2ccccc2)nc1CCn1ccc2c(OCC(=O)O)ccnc21 [Example 47]
28 | 30 | Cc1oc(-c2ccccc2)nc1CCOc1cccc2c1ccn2CC(=O)O [Example 48]
29 | > 50 | Cc1oc(-c2ccccc2)nc1CCOc1cccc2c1cnn2CC(=O)O [Example 49]
30 | 4.9 | Cc1oc(-c2ccccc2)nc1CCOc1cccc2c1c(Cl)cn2CCC(=O)O [Example 50]
31 | > 100 | Cc1oc(-c2ccccc2)nc1CCOc1cccc2c1ccn2CC(CCC(=O)O)C(=O)O (stereo not shown) [Example 51]
32 | 8.5 | Cc1oc(-c2ccccc2)nc1CCOc1ccnc2c(CCC(=O)O)cccc12 [Example 53]
33 | 16 | Cc1oc(-c2ccccc2)nc1CCOc1cccc2c1ccn2CCCC(=O)O [Example 54]
34 | > 100 | Cc1oc(-c2ccccc2)nc1COc1cccc2c1ccn2CCCC(=O)O [Example 55]
